Measured values reported in US10774051B2, “6-membered heterocyclic derivatives and pharmaceutical composition comprising the same” (Shionogi & Co., Ltd., priority 2015, dated 2020).

These compounds were tested against human P2X7 receptor (Homo sapiens, UniProt Q99572, R270H/Y155H) (assay: Evaluation of human P2X7 receptor inhibitory activity (Yo-Pro uptake, BzATP stimulation, FLIPR TETRA)). Details: 1321N1 cells stably expressing human P2X7 receptor; BzATP stimulation, Yo-Pro uptake; read-out: IC50 (antagonistic activity for the human P2X7 receptor).
Type: cell-based
In short: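 1321N1 cells stably expressing human P2X7 (T606C/G952A SNP variant), in HBSS buffer pH 7.4-7.5 with Yo-Pro, stimulated with BzATP; compound added 8 min after agonist. Fluorescence followed for 20 min on FLIPR; max-minus-min change gave % inhibition, IC50 by logistic fit.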
In the case of `COc1cn(Cc2ccc(F)cc2)c(Nc2cc3c(cc2C)OCCO3)nc1=O` [Compound I-0289], the IC50 is reported as 27 nM.
`COc1cn(Cc2ccccc2C(F)(F)F)c(Nc2cccc(Cl)c2C)nc1=O` [Compound I-0294] was tested, and the IC50 was 250 nM.
Work on `COc1cn(Cc2cccc(C(F)(F)F)c2)c(Nc2cccc(Cl)c2C)nc1=O` [Compound I-0295] yielded an IC50 of 170 nM.
Work on `COc1cn(Cc2ccc(C(F)(F)F)cc2)c(Nc2cccc(Cl)c2C)nc1=O` [Compound I-0297] yielded an IC50 of 250 nM.

Same assay, conditions: 1321N1 cells stably expressing human P2X7 receptor; BzATP stimulation, Yo-Pro uptake; read-out: IC50 (antagonistic activity for the human P2X7 receptor), class symbol
`CCc1cc(OC)c(OC)cc1Nc1nc(=O)c(OC)cn1Cc1ccc(F)cc1` [Compound I-0270] was tested, and the IC50 was < 10 nM.
`CCc1cc(OC)c(OC)cc1Nc1nc(=O)c(OC)cn1Cc1cccc(Cl)c1` [Compound I-0271] was tested, and the IC50 was < 10 nM.
For `CCc1cc(OC)c(OC)cc1Nc1nc(=O)c(OC)cn1Cc1ccc(F)c(F)c1` [Compound I-0272], the IC50 was < 10 nM.
`CCc1cc(OC)c(OC)cc1Nc1nc(=O)c(OC)cn1Cc1ccc(F)c(Cl)c1` [Compound I-0273] was tested, and the IC50 was < 10 nM.
For `COc1cc(C)c(Nc2nc(=O)c(OC)cn2Cc2cccc(F)c2)cc1OC` [Compound I-0274], the IC50 was < 10 nM.
`COc1cc(C)c(Nc2nc(=O)c(OC)cn2Cc2ccc(F)cc2)cc1OC` [Compound I-0275] was tested, and the IC50 was 10 to 100 nM.
`COc1cc(C)c(Nc2nc(=O)c(OC)cn2Cc2ccc(F)c(F)c2)cc1OC` [Compound I-0276] showed an IC50 of 10 to 100 nM.
In the case of `COc1cn(Cc2ccc(F)c(F)c2)c(Nc2cc(C)c(C)cc2C)nc1=O` [Compound I-0277], the IC50 is reported as < 10 nM.
With `COc1cn(Cc2ccccc2)c(Nc2cc(CO)c(C)cc2C)nc1=O` [Compound I-0278] the IC50 was < 10 nM.
`COc1cn(Cc2ccc(F)c(F)c2)c(Nc2cc(C)c(Cl)cc2C)nc1=O` [Compound I-0279] was tested, and the IC50 was < 10 nM.
`COc1cn(Cc2ccc(Cl)c(F)c2)c(Nc2cccc(Cl)c2C)nc1=O` [Compound I-0280] was tested, and the IC50 was 10 to 100 nM.
For `COc1cc(C)cc(Nc2nc(=O)c(OC)cn2Cc2ccccc2)c1C` [Compound I-0281], the IC50 was < 10 nM.
With `COc1cc(C)c(Nc2nc(=O)c(OC)cn2Cc2ccc(F)cc2)cc1C` [Compound I-0282] the IC50 was < 10 nM.
With `COc1cc(C)c(Nc2nc(=O)c(OC)cn2Cc2ccc(F)c(F)c2)cc1C` [Compound I-0283] the IC50 was < 10 nM.
In the case of `Cc1cc(C)c(Nc2nc(=O)c(C(=O)NCc3ccccc3)cn2Cc2ccccc2)cc1C` [Compound I-0284], the IC50 is reported as 500 to 1000 nM.
`COc1cn(Cc2cc(F)cc(Cl)c2)c(Nc2cccc(Cl)c2C)nc1=O` [Compound I-0285] was tested, and the IC50 was 10 to 100 nM.
`COc1cn(Cc2cccc(F)c2F)c(Nc2cccc(Cl)c2C)nc1=O` [Compound I-0286] gave an IC50 of 10 to 100 nM.
`COc1cn(Cc2ccccc2)c(Nc2cc3c(cc2C)OCCO3)nc1=O` [Compound I-0287] was tested, and the IC50 was 10 to 100 nM.
`COc1cn(Cc2cccc(F)c2)c(Nc2cc3c(cc2C)OCCO3)nc1=O` [Compound I-0288] gave an IC50 of 10 to 100 nM.
In the case of `COc1cn(Cc2cccc(Cl)c2)c(Nc2cc3c(cc2C)OCCO3)nc1=O` [Compound I-0290], the IC50 is reported as 10 to 100 nM.
With `COc1cn(Cc2ccc(F)c(F)c2)c(Nc2cc3c(cc2C)OCCO3)nc1=O` [Compound I-0291] the IC50 was 10 to 100 nM.
In the case of `COc1cn(Cc2ccc(F)c(Cl)c2)c(Nc2cc3c(cc2C)OCCO3)nc1=O` [Compound I-0292], the IC50 is reported as 10 to 100 nM.
For `COc1cn(Cc2ccc(Cl)c(F)c2)c(Nc2cc3c(cc2C)OCCO3)nc1=O` [Compound I-0293], the IC50 was 10 to 100 nM.
With `COc1cn(Cc2ccc(Cl)c(Cl)c2)c(Nc2cccc(Cl)c2C)nc1=O` [Compound I-0296] the IC50 was 10 to 100 nM.
`COc1cn(Cc2ccccc2)c(Nc2cc(C)cc(C)c2C)nc1=O` [Compound I-0298] was tested, and the IC50 was 10 to 100 nM.
In the case of `COc1cn(Cc2cccc(Cl)c2)c(Nc2cc(C)c(OC(F)F)cc2C)nc1=O` [Compound I-0299], the IC50 is reported as 10 to 100 nM.
With `COc1cn(Cc2cccc(F)c2)c(Nc2cc(C)c(OC(F)F)cc2C)nc1=O` [Compound I-0300] the IC50 was < 10 nM.
In the case of `COc1cn(Cc2ccc(F)cc2)c(Nc2cc(C)c(OC(F)F)cc2C)nc1=O` [Compound I-0301], the IC50 is reported as < 10 nM.
For `COc1cn(Cc2ccc(F)c(F)c2)c(Nc2cc(C)c(OC(F)F)cc2C)nc1=O` [Compound I-0302], the IC50 was < 10 nM.
With `COc1cn(Cc2ccccc2OC(F)(F)F)c(Nc2cccc(Cl)c2C)nc1=O` [Compound I-0303] the IC50 was 100 to 500 nM.
For `COc1cn(Cc2cccc(OC(F)(F)F)c2)c(Nc2cccc(Cl)c2C)nc1=O` [Compound I-0304], the IC50 was 500 to 1000 nM.
With `Cc1cc(C)c(Nc2nc(=O)c(F)cn2Cc2ccc(F)cc2)cc1C` [Compound I-0306] the IC50 was < 10 nM.
For `Cc1cc(C)c(Nc2nc(=O)c(Cl)cn2Cc2ccccc2)cc1C` [Compound I-0307], the IC50 was < 10 nM.
In the case of `COc1cc(C)c(Nc2nc(=O)c(F)cn2Cc2cccc(Cl)c2)cc1OC` [Compound I-0308], the IC50 is reported as < 10 nM.
With `COc1cc(C)c(Nc2nc(=O)c(F)cn2Cc2ccc(F)c(Cl)c2)cc1OC` [Compound I-0309] the IC50 was < 10 nM.
For `COc1cc(C)c(Nc2nc(=O)c(Cl)cn2Cc2ccccc2)cc1OC` [Compound I-0310], the IC50 was 10 to 100 nM.
`COc1cn(Cc2c(F)cccc2F)c(Nc2cccc(Cl)c2C)nc1=O` [Compound I-0311] gave an IC50 of 100 to 500 nM.
Work on `COc1cn(Cc2cccc(Cl)c2)c(Nc2cccc(C)c2C)nc1=O` [Compound I-0312] yielded an IC50 of 10 to 100 nM.
Work on `Cc1ccc(N2CCCS2(=O)=O)cc1Nc1nc(=O)c(Cl)cn1Cc1ccccc1` [Compound I-0313] yielded an IC50 of 10 to 100 nM.
For `CCc1c(Nc2nc(=O)c(F)cn2Cc2ccc(F)cc2)cc(OC)cc1OC` [Compound I-0314], the IC50 was < 10 nM.
For `CCc1c(Nc2nc(=O)c(F)cn2Cc2cccc(Cl)c2)cc(OC)cc1OC` [Compound I-0315], the IC50 was < 10 nM.
With `CCc1c(Nc2nc(=O)c(F)cn2Cc2ccc(F)c(Cl)c2)cc(OC)cc1OC` [Compound I-0316] the IC50 was < 10 nM.
Work on `COc1cn(Cc2cc(Cl)cc(Cl)c2)c(Nc2cccc(Cl)c2C)nc1=O` [Compound I-0317] yielded an IC50 of 100 to 500 nM.
`COc1cc(C)c(Nc2nc(=O)c(F)cn2Cc2ccccc2)cc1C` [Compound I-0318] was tested, and the IC50 was < 10 nM.
`COc1cc(C)c(Nc2nc(=O)c(F)cn2Cc2ccc(F)cc2)cc1C` [Compound I-0319] was tested, and the IC50 was < 10 nM.
Compound `COc1cn(Cc2ccccc2)c(Nc2cc(OC(C)C)ccc2C)nc1=O` [Compound I-0320] has an IC50 of 100 to 500 nM.
With `COc1cn(Cc2ccc(F)c(Cl)c2)c(Nc2cc(OC(C)C)ccc2C)nc1=O` [Compound I-0321] the IC50 was 10 to 100 nM.
`CCc1ccccc1Nc1nc(=O)c(OC)cn1Cc1cccc(Cl)c1` [Compound I-0322] gave an IC50 of 10 to 100 nM.
In the case of `COc1cn(Cc2cccc(F)c2)c(Nc2cccc(C)c2C)nc1=O` [Compound I-0323], the IC50 is reported as < 10 nM.
With `COc1cn(Cc2ccc(F)c(F)c2)c(Nc2cccc(C)c2C)nc1=O` [Compound I-0324] the IC50 was < 10 nM.
In the case of `COc1cn(Cc2ccc(F)c(Cl)c2)c(Nc2cccc(C)c2C)nc1=O` [Compound I-0325], the IC50 is reported as < 10 nM.
With `COc1cn(Cc2cc(F)cc(F)c2)c(Nc2cccc(C)c2C)nc1=O` [Compound I-0326] the IC50 was < 10 nM.
Work on `CCc1ccccc1Nc1nc(=O)c(OC)cn1Cc1cc(F)cc(F)c1` [Compound I-0327] yielded an IC50 of 10 to 100 nM.
`COc1cn(Cc2cc(F)ccc2F)c(Nc2cccc(Cl)c2C)nc1=O` [Compound I-0328] showed an IC50 of 10 to 100 nM.
In the case of `COc1cn(Cc2ccc(F)cc2F)c(Nc2cccc(Cl)c2C)nc1=O` [Compound I-0329], the IC50 is reported as 10 to 100 nM.
`CNC(=O)Cc1cn(Cc2ccccc2)c(Nc2cccc(Cl)c2C)nc1=O` [Compound I-0330] gave an IC50 of 100 to 500 nM.
Compound `Cc1c(Cl)cccc1Nc1nc(=O)c(CC(=O)N(C)C)cn1Cc1ccccc1` [Compound I-0331] has an IC50 of 100 to 500 nM.
